This note sets out measurements from the supplement of paper PMC10307832.

Assay in all cases: relative viability (nuclei count vs DMSO), 5 days (fraction); higher = more cells survive
Compound in the assay “AZD6482 + Luminespib”: Cc1cc([C@@H](C)Nc2ccccc2C(=O)O)c2nc(N3CCOCC3)cc(=O)n2c1 [AZD6482] + CCNC(=O)c1noc(-c2cc(C(C)C)c(O)cc2O)c1-c1ccc(CN2CCOCC2)cc1 [Luminespib] (partner 0.01 µM)
The method in brief:
(§1)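 Relative viability was taken as the ratio of nuclei in treated wells to nuclei in vehicle wells. Lung cancer cell lines in 1536-well plates received compounds by pin tool one day after seeding, either one drug alone or a fixed anchor-drug dose plus five library-drug doses (not always all listed) in √10 steps. Nuclei were counted on 4× images after 5 days of treatment, and values are medians of duplicate plates.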

Compound in assay [1]: COc1cc2nc(N3CCCN(C)CC3)nc(NC3CCN(Cc4ccccc4)CC3)c2cc1OC + Nc1nc2[nH]cc(CCc3ccc(C(=O)N[C@@H](CCC(=O)O)C(=O)O)cc3)c2c(=O)[nH]1 [Pemetrexed] (partner 0.2 µM)
In a few lines:
as §1

Compound in assay [2]: COc1cc2nc(N3CCCN(C)CC3)nc(NC3CCN(Cc4ccccc4)CC3)c2cc1OC + Cc1nc(Nc2ncc(C(=O)Nc3c(C)cccc3Cl)s2)cc(N2CCN(CCO)CC2)n1 [Dasatinib] (partner 0.075 µM)
The method in brief:
as §1

Compound in the assay “AZD6482 + Pictilisib”: Cc1cc([C@@H](C)Nc2ccccc2C(=O)O)c2nc(N3CCOCC3)cc(=O)n2c1 [AZD6482] + CS(=O)(=O)N1CCN(Cc2cc3nc(-c4cccc5[nH]ncc45)nc(N4CCOCC4)c3s2)CC1 [Pictilisib] (partner 1 µM)
In a few lines:
as §1

Take UMC-11: the relative viability with AZD6482 + Luminespib (first compound 0.08 µM) is 0.986; with AZD6482 + Luminespib (first compound 0.253 µM), 0.994; with AZD6482 + Luminespib (first compound 0.8 µM), 0.929; with AZD6482 + Luminespib (first compound 2.53 µM), 0.869; in the assay with AZD6482 + Luminespib (first compound 8 µM) it was 1.26; in assay [1] (first compound 0.2 µM) it was 0.86. The relative viability in assay [1] (first compound 0.6325 µM) was determined as 0.773; in assay [1] (first compound 2 µM) it was 0.834; in assay [1] (first compound 6.325 µM), 0.588; in assay [2] (first compound 0.2 µM), 0.464; in assay [2] (first compound 0.6325 µM) it was 0.435; in assay [2] (first compound 2 µM), 0.468. Also, the relative viability was found to be 0.286 in assay [2] (first compound 6.325 µM); 0.757 in the assay with AZD6482 + Pictilisib (first compound 0.08 µM); 0.817 with AZD6482 + Pictilisib (first compound 0.253 µM); 0.841 with AZD6482 + Pictilisib (first compound 0.8 µM); 0.503 with AZD6482 + Pictilisib (first compound 2.53 µM); 1.04 with AZD6482 + Pictilisib (first compound 8 µM).
